Columns and labels:
[1] = tested on: blood coagulation (whole blood); assay: Blood coagulation (c), trial assay with whole blood; assay type: biochemical; conditions: control 14.9 sec
Procedure: (§1) 200 microliter thromboplastin (Ortho) was mixed with 10 microliter ketoaldehyde (KA) stock solution. Then 100 microliter citrated human blood plasma was added and the clot formation time (in seconds) was measured on a Fibrionometer. The effect of the ketoaldehyde on coagulation time was evaluated by comparing the clotting time of the KA treated plasma with the untreated control. The result (d%) was read from a special chart expressing the clotting activity.
(§2) All measurements were run in triplicates. The assay was run at 37 C (waterbath) in special tubes and all solutions were prewarmed.
(c) A trial assay where blood plasma was replaced

Penicillum notatum = assay: Inhibition of proliferation of molds, disk assay; assay type: cell-based; conditions: 40 hrs
Procedure: (§3) (1) Stock solutions in 26% 2 popanediol:
(§4) (3) Assay: The microorganisms were grown in Saburand's dextrose agar (Scott) at 35 C for stock cultures. For assay the spores were plated on Mueller-Hilton agar plates (7cm dia). The test compounds were applied to the plates on sensi disks (6 mm dia, Whatmann #17 paper) in volumes of 10, 20, 30, 40 microliter made up to 40 plating volume of microliter with the solvent. The plates were incubated at room temperature and in the dark for 40 hrs. The diameter of the inhibition ring around the sensi disks were measured.

Aspergillus niger = assay: Inhibition of proliferation of molds, disk assay; assay type: cell-based; conditions: 40 hrs
Procedure: as §3, §4

Sarcoma-180 cells = assay: Radiation enhancement in mice carrying ascitic Sarcoma-180 cells; assay type: in vivo
Source text: Ten minutes after the injection the mice were irradiated with a gamma source (612 RAD equivalent of 400 R total body radiation; calculated lethaldose:LD-50/30 days). The treatment was repeated 3 times 4 days apart. […] One day after the last radiation, the animals were sacrificed, the ascitic fluid was collected and the malignant cells were counted.

[2] = tested on: blood coagulation (citrated human blood plasma); assay: Blood coagulation (i), ketoaldehyde kept 1-2 seconds before plasma added; assay type: biochemical; conditions: 1-2 seconds contact; for d % (clotting activity): control 22; for coagulation time: control 24; for clot: control hard
Procedure: as §1, §2
(i) The plasminogen and ketoaldehyde were kept for
1-2 seconds before the blood plasma was added.

[3] = tested on: blood coagulation (normal plasma); assay: Blood coagulation (ii)(b), normal plasma; assay type: biochemical, human
Procedure: as §1, §2
(§5) (ii) The plasminogen and KA were incubated for
(§6) varying time before the blood plasma was added.
(b) with normal plasma: clotting time = 11. 7 sec

Candida albicans = assay: Effect on proliferation of Candida albicans, disk on agar surface (A); assay type: cell-based; conditions: 24 hours (*)
Procedure: Stock solutions of the following test compounds were dissolved in physiological saline. However DOV was dissolved in water.
C. albicans isolated from clinical specimens were density grown in SubbaRow's broth at 35 C. A loopful of yeast suspension was evenly spread on the surface of Muller-Hilton agar plates (7cm diameter) with a sterile cotton applicator and incubated for 12 hours. The test compounds were placed on the surface of the sensidisks (Whatmann No. 17 paper, 6mm diameter) in a volume of 5, 10, 20, and 50 μliter of stock solutions and made up a final volume of 50 μliter with saline. The plates then were placed and kept at 37 C for 24 hours (*) and 48 hours (**) when the diameters of the inhibitory rings were recorded. Photographs were also taken of plates.

[4] = in vivo half life of C14-radiolabelled free and latentiated methylglyoxal; conditions: free; injected into mice
Procedure: With free alpha-ketoaldehydes, the half-life is about 30 minutes. […] Latentiation also protects host cells from the toxic effects of alpha-ketoaldehydes.

[5] = tested on: blood coagulation (plasma from a patient with prothrombin); assay: Blood coagulation (ii)(a), plasma from a patient with prothrombin; assay type: biochemical, human
Procedure: as §1, §2, §5, §6
(a) With plasma from a patient with prothrombin
(clotting time 26 sec d % = 19. "Normal" (healthy)

C. albicans = assay: Inhibition of C. albicans, yeast mixed in agar (B); assay type: cell-based; conditions: 30 μl test, 24 hrs incubation; mean of twenty assays
Procedure: Stock cultured C. albicans is used. The yeast isolated from clinical specimens was stock cultured (subcultured) on semisolid trypsoy agar plates. […] Thus, from the subculture(s), transfers were made every 48 hrs into SRB to keep the experimental strain available for assays. From the 24-48 hrs SRB cultures a loopful of turbid solutions was transferred and spread on either (a) trypsoy agar plates or (b) EBM agar plates which were fortified with horse and calf serum and incubated at 36 C for 24-48 hrs. […] Plate (a) was selected for growth inhibition assay(s) with ketoaldehydes.
One milliliter of SRB culture (24-48 hrs growth) was mixed with 10 ml trypsoy agar, warmed to 38 C and rapidly poured into sterile Petri dishes (7cm), spread evenly and allowed to solidify. The selected test compounds (in 30 μl total volume, as above) were placed in sensidisks (6mm dia, Whatman #17) on the infected agar surface. The plates were incubated for 24 hrs at 37 C. The extent of inhibition, clear zones around the sensi disks, were measured and recorded. In some cases contact photorecords were also made with the plates. (The dark zones on the photos are the inhibition (no growth) areas of C. albicans.
These assays were aimed at finding the variations of inhibition due to (i) the variable amount of yeast in (ii) a three dimensional area of the plates. Each result is the statistical mean of twenty assays on different batches of C. albicans.

[6] = assay type: physicochemical
cell division = conditions: Stein and co-workers; cited from earlier work

Q: For `CC(=O)C=O` [MG, methylglyoxal], which clotting time ([1]; incubation time 70) is on record?
A: The clotting time was 16.5 s.

Q: What about the clotting time ([1]; incubation time 150) of the same compound?
A: The clotting time was 19.4 s.

Q: And the clotting time ([1]; incubation time 180)?
A: The clotting time was 20.0 s.

Q: And the clotting time ([1]; incubation time 240)?
A: The clotting time was 22.0 s.

Q: What about the clotting time ([1]; incubation time 360) of the same compound?
A: The clotting time was 24.0 s.

Q: And the “diameter of inhibition ring” value (Penicillum notatum; 30 microliter)?
A: Its value is 8.

Q: What about the “diameter of inhibition ring” value (Penicillum notatum; 40 microliter) of the same compound?
A: The value was 10.

Q: And the “diameter of inhibition ring” value (Aspergillus niger; 30 microliter)?
A: Its value is 7.

Q: And the “diameter of inhibition ring” value (Aspergillus niger; 40 microliter)?
A: Its value is 9.

Q: And the “P % (promotion)” value (Sarcoma-180 cells; MG alone, without radiation)?
A: The value was 4.7%.

Q: What about the TC % (Sarcoma-180 cells; MG alone, without radiation) of the same compound?
A: Its TC % is 104.7%.

Q: What about the TC % (Sarcoma-180 cells; RAD + MG, 120 mg/kg, 612 RAD, 3 times) of the same compound?
A: The TC % was 7.7%.

Q: What about the “d % (clotting activity)” value [2] of the same compound?
A: The value was 20%.

Q: What about the coagulation time [2] of the same compound?
A: The coagulation time was 25 s.

Q: What about the clot [2] of the same compound?
A: Its clot is “hard”.

Q: What about the clotting time ([3]; incubation time 5 seconds) of the same compound?
A: The clotting time was 12.9 s.

Q: And the d% ([3]; incubation time 5 seconds)?
A: Its d% is 96%.

Q: What about the clotting time ([3]; incubation time 60 seconds) of the same compound?
A: Its clotting time is 14.9 s.

Q: What about the d% ([3]; incubation time 60 seconds) of the same compound?
A: The d% was 55%.

Q: What about the clotting time ([3]; incubation time 129 seconds) of the same compound?
A: The clotting time was 15.4 s.

Q: And the d% ([3]; incubation time 129 seconds)?
A: Its d% is 53%.

Q: What about the clotting time ([3]; incubation time 240 seconds) of the same compound?
A: The clotting time was 19.0 s.

Q: And the d% ([3]; incubation time 240 seconds)?
A: Its d% is 35%.

Q: And the clotting time ([3]; incubation time 360 seconds)?
A: The clotting time was 26.9 s.

Q: What about the d% ([3]; incubation time 360 seconds) of the same compound?
A: Its d% is 26%.

Q: What about the clotting time ([3]; incubation time 600 seconds) of the same compound?
A: The clotting time was over 167.0 s.

Q: And the inhibition diameters (Candida albicans; 20 μliter)?
A: Its inhibition diameters is 8 mm.

Q: What about the inhibition diameters (Candida albicans; 50 μliter) of the same compound?
A: The inhibition diameters was 10 mm.

Q: And the half life [4]?
A: The half life was “about 30 minutes”.

Q: What about the clotting time ([5]; incubation time 30 seconds) of the same compound?
A: Its clotting time is 39 s.

Q: And the d% ([5]; incubation time 30 seconds)?
A: Its d% is 15%.

Q: What about the clotting time ([5]; incubation time 60 seconds) of the same compound?
A: Its clotting time is 32 s.

Q: What about the d% ([5]; incubation time 60 seconds) of the same compound?
A: Its d% is 13%.

Q: And the clotting time ([5]; incubation time 130 seconds)?
A: Its clotting time is 39 s.

Q: What about the d% ([5]; incubation time 130 seconds) of the same compound?
A: The d% was under 10%.

Q: What about the clotting time ([5]; incubation time 190 seconds) of the same compound?
A: The clotting time was 41 s.

Q: And the clotting time ([5]; incubation time 300 seconds)?
A: Its clotting time is 91.8 s.

Q: And the “inhibition diameters” value (C. albicans)?
A: The value was 6.0 mm.

Q: For `O=CC(=O)c1ccccc1` [PhG, phenylglyoxal], which “d % (clotting activity)” value [2] is on record?
A: Its value is 11%.

Q: And the coagulation time [2]?
A: The coagulation time was 35 s.

Q: And the clot [2]?
A: Its clot is “hard”.

Q: And the clotting time ([3]; incubation time 120 seconds)?
A: Its clotting time is 19.5 s.

Q: And the d% ([3]; incubation time 120 seconds)?
A: Its d% is 33%.

Q: And the “solubility in organic solvents” value ([6]; chloroform, methanol, ethanol)?
A: Its value is “soluble in chloroform methanol and ethanol”.

Q: And the “solubility limit of stock solution” value ([6]; physiological saline stock)?
A: The value was “limit solubility”.

Q: And the solubility in water ([6]; water)?
A: Its solubility in water is “sparingly soluble in water”.

Q: What about the “effect of reaction with arginine-rich surface proteins on cells” value (cell division) of the same compound?
A: The value was “cells that can not divide, and which become leaky and die”.

Q: And the inhibition diameters (Candida albicans; 20 μliter)?
A: The inhibition diameters was 5 mm.

Q: And the inhibition diameters (Candida albicans; 50 μliter)?
A: Its inhibition diameters is 8 mm.

Reference: patent publication US5147652A, “Autobiotics and their use in eliminating nonself cells in vivo” (priority 1990, dated 1992)
